# In the supplement of paper PMC10307832:
# Legend:
# Experiment in all cases: relative viability (nuclei count vs DMSO), 5 days (fraction); higher = more cells survive
# [1] = compound: O=c1[nH]cc(F)c(=O)[nH]1 [5-Fluorouracil] + N=C(N)NC(=N)NCCc1ccccc1 [Phenformin] (partner 250 µM)
# Method in brief: (§1)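 Values are medians from duplicate plates. Each reflects relative viability, defined as the nuclei count of treated wells over that of vehicle wells. Lung cancer cell lines in 1536-well plates were pin-tool dosed one day after seeding with one drug alone or with a fixed anchor-drug dose plus five library-drug doses (not always all listed) in √10 steps, then fixed, stained and imaged at 4× after 5 days.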
# Sulindac + OSI-027 = compound: CC1=C(CC(=O)O)c2cc(F)ccc2/C1=C\c1ccc([S+](C)[O-])cc1 [Sulindac] + COc1cccc2cc(-c3nc([C@H]4CC[C@H](C(=O)O)CC4)n4ncnc(N)c34)[nH]c12 [OSI-027] (partner 0.5 µM)
# Method in brief: as §1
# Staurosporine + AZD7762 = compound: CN[C@@H]1C[C@H]2O[C@@](C)([C@@H]1OC)n1c3ccccc3c3c4c(c5c6ccccc6n2c5c31)C(=O)NC4 [Staurosporine] + NC(=O)Nc1cc(-c2cccc(F)c2)sc1C(=O)N[C@H]1CCCNC1 [AZD7762] (partner 0.2 µM)
# Method in brief: as §1
# 5-Fluorouracil + OSI-027 = compound: O=c1[nH]cc(F)c(=O)[nH]1 [5-Fluorouracil] + COc1cccc2cc(-c3nc([C@H]4CC[C@H](C(=O)O)CC4)n4ncnc(N)c34)[nH]c12 [OSI-027] (partner 0.5 µM)
# Method in brief: as §1
Cell Line,relative viability ([1]; first compound 0.02 µM),relative viability ([1]; first compound 0.2 µM),relative viability ([1]; first compound 0.6325 µM),relative viability ([1]; first compound 2 µM),relative viability (Sulindac + OSI-027; first compound 0.08 µM),relative viability (Sulindac + OSI-027; first compound 0.253 µM),relative viability (Sulindac + OSI-027; first compound 2.53 µM),relative viability (Sulindac + OSI-027; first compound 8 µM),relative viability (Staurosporine + AZD7762; first compound 0.005 µM),relative viability (Staurosporine + AZD7762; first compound 0.01581 µM),relative viability (Staurosporine + AZD7762; first compound 0.1581 µM),relative viability (Staurosporine + AZD7762; first compound 0.5 µM),relative viability (5-Fluorouracil + OSI-027; first compound 0.02 µM),relative viability (5-Fluorouracil + OSI-027; first compound 0.2 µM),relative viability (5-Fluorouracil + OSI-027; first compound 0.6325 µM),relative viability (5-Fluorouracil + OSI-027; first compound 2 µM),relative viability (Sulindac + OSI-027; first compound 0.8 µM),relative viability (Staurosporine + AZD7762; first compound 0.05 µM)
HOP-62,0.617,0.728,0.636,0.644,0.825,0.976,0.946,0.91,0.358,0.128,0.126,0.0794,0.87,0.938,0.846,0.633,,
NCI-H2126,0.411,0.331,0.314,0.287,0.578,0.698,0.741,0.771,0.914,0.622,0.268,0.27,0.589,0.39,0.302,0.365,0.674,0.673
NCI-H1793,0.467,0.476,0.42,0.266,0.218,0.359,0.243,0.258,0.352,,0.186,0.145,0.283,0.369,0.303,0.207,0.236,0.143
H3255,0.35,0.393,0.35,0.351,0.523,0.622,0.576,0.593,0.658,0.474,0.204,0.126,0.609,0.686,0.699,0.574,0.474,0.324
EMC-BAC-2,0.625,0.542,0.498,0.51,0.375,0.407,0.371,0.473,0.352,0.215,0.262,0.192,0.363,0.407,0.376,0.361,0.311,0.203
NCI-H522,0.584,0.637,0.682,0.678,0.788,0.777,0.62,0.645,0.953,0.866,0.639,0.404,0.714,0.714,0.722,0.705,0.666,0.715
CAL-12T,0.616,0.614,0.37,0.425,0.534,0.847,0.61,0.696,0.416,0.338,0.257,0.167,0.771,0.625,0.385,0.352,0.51,0.409
NCI-H727,0.532,0.472,0.489,0.495,0.561,0.538,0.537,1,0.622,0.412,0.466,0.461,0.639,0.651,0.647,0.574,,0.55
NCI-H1355,0.431,0.412,0.296,0.297,0.403,0.454,0.38,0.393,0.713,0.294,0.214,0.148,0.465,0.4,0.274,0.268,,0.237
PC-3 [JPC-3],0.48,0.476,0.496,0.45,0.715,0.797,0.752,0.728,0.829,0.472,0.327,0.332,0.824,0.805,0.726,0.625,0.614,0.357
LK-2,0.597,0.582,0.57,0.381,0.186,0.209,0.17,0.21,0.571,0.448,0.0558,0.0592,0.196,0.188,0.199,0.165,0.201,0.394
NCI-H1734,0.374,0.436,0.379,0.313,0.663,0.636,0.583,0.711,0.539,0.242,0.0987,0.0915,0.58,0.655,0.513,0.398,,0.194
NCI-H441,0.927,0.979,0.553,0.387,0.627,0.597,0.679,0.759,0.86,0.538,0.293,0.165,0.779,0.523,0.322,0.326,0.416,0.315
NCI-H838,0.544,0.609,0.364,0.245,0.382,0.424,0.358,0.388,0.776,0.644,0.693,0.675,0.42,0.373,0.252,0.209,0.367,0.643
NCI-H23,0.686,0.897,0.438,0.298,0.678,,0.583,0.72,0.223,0.126,0.12,0.0804,0.618,0.56,0.388,0.252,0.602,0.164
NCI-H1395,0.426,0.458,0.428,0.494,0.668,0.72,0.58,0.77,0.38,0.305,0.303,0.302,0.505,0.738,0.579,0.684,0.675,0.34
NCI-H647,0.504,0.495,0.544,0.399,0.63,0.947,0.677,0.683,0.296,0.102,0.0587,0.05,0.616,0.724,0.464,0.378,0.487,0.121
